Reference: PubChem BioAssay (NCI)
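All cell lines were grown in 96-well plates and treated with compound for 48 hours. The concentration for full growth arrest is given as TGI.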

Assays:
Assay in all cases: NCI anticancer screen, dose series, 48 h
786-0 renal = system: 786-0 renal
A498 renal = system: A498 renal
A549 NSCLC = system: A549 NSCLC
ACHN renal = system: ACHN renal
CAKI-1 renal = system: CAKI-1 renal
CCRF-CEM leukemia = system: CCRF-CEM leukemia
COLO 205 colon = system: COLO 205 colon
DLD-1 colon = system: DLD-1 colon
DMS 114 small cell lung = system: DMS 114 small cell lung
DMS 273 small cell lung = system: DMS 273 small cell lung
EKVX NSCLC = system: EKVX NSCLC
HCC-2998 colon = system: HCC-2998 colon
HCT-116 colon = system: HCT-116 colon
HCT-15 colon = system: HCT-15 colon
HL-60(TB) leukemia = system: HL-60(TB) leukemia
HOP-18 NSCLC = system: HOP-18 NSCLC
HOP-62 NSCLC = system: HOP-62 NSCLC
HOP-92 NSCLC = system: HOP-92 NSCLC
HT29 colon = system: HT29 colon
IGROV1 ovarian = system: IGROV1 ovarian
K-562 leukemia = system: K-562 leukemia
KM12 colon = system: KM12 colon
KM20L2 colon = system: KM20L2 colon
LOX IMVI melanoma = system: LOX IMVI melanoma
M14 melanoma = system: M14 melanoma
M19-MEL melanoma = system: M19-MEL melanoma
MALME-3M melanoma = system: MALME-3M melanoma
MOLT-4 leukemia = system: MOLT-4 leukemia
NCI-H226 lung = system: NCI-H226 lung
NCI-H23 lung = system: NCI-H23 lung
NCI-H460 lung = system: NCI-H460 lung
NCI-H522 lung = system: NCI-H522 lung
OVCAR-3 ovarian = system: OVCAR-3 ovarian
OVCAR-4 ovarian = system: OVCAR-4 ovarian
OVCAR-5 ovarian = system: OVCAR-5 ovarian
OVCAR-8 ovarian = system: OVCAR-8 ovarian
RPMI-8226 leukemia = system: RPMI-8226 leukemia
SF-268 CNS = system: SF-268 CNS
SF-295 CNS = system: SF-295 CNS
SF-539 CNS = system: SF-539 CNS
SK-MEL-2 melanoma = system: SK-MEL-2 melanoma
SK-MEL-28 melanoma = system: SK-MEL-28 melanoma
SK-MEL-5 melanoma = system: SK-MEL-5 melanoma
SK-OV-3 ovarian = system: SK-OV-3 ovarian
SN12C renal = system: SN12C renal
SNB-19 CNS = system: SNB-19 CNS
SNB-75 CNS = system: SNB-75 CNS
SNB-78 CNS = system: SNB-78 CNS
SR leukemia = system: SR leukemia
SW-620 colon = system: SW-620 colon
TK-10 renal = system: TK-10 renal
U251 CNS = system: U251 CNS
UACC-257 melanoma = system: UACC-257 melanoma
UACC-62 melanoma = system: UACC-62 melanoma
UO-31 renal = system: UO-31 renal
XF 498 CNS = system: XF 498 CNS
LXFL 529 NSCLC = system: LXFL 529 NSCLC
RXF 393 renal = system: RXF 393 renal

## C=CCSc1ncnc2c1ncn2C1OC(CO)C(O)C1O (configuration not stated)
786-0 renal
  TGI: > 100 µM
A498 renal
  TGI: > 100 µM
A549 NSCLC
  TGI: > 100 µM
ACHN renal
  TGI: > 100 µM
CAKI-1 renal
  TGI: > 100 µM
CCRF-CEM leukemia
  TGI: > 100 µM
COLO 205 colon
  TGI: > 100 µM
DLD-1 colon
  TGI: > 100 µM
DMS 114 small cell lung
  TGI: 70.4 µM
DMS 273 small cell lung
  TGI: > 100 µM
EKVX NSCLC
  TGI: > 100 µM
HCC-2998 colon
  TGI: > 100 µM
HCT-116 colon
  TGI: > 100 µM
HCT-15 colon
  TGI: > 100 µM
HL-60(TB) leukemia
  TGI: > 100 µM
HOP-18 NSCLC
  TGI: > 100 µM
HOP-62 NSCLC
  TGI: > 100 µM
HOP-92 NSCLC
  TGI: > 100 µM
HT29 colon
  TGI: > 100 µM
IGROV1 ovarian
  TGI: > 100 µM
K-562 leukemia
  TGI: > 100 µM
KM12 colon
  TGI: > 100 µM
KM20L2 colon
  TGI: > 100 µM
LOX IMVI melanoma
  TGI: > 100 µM
M14 melanoma
  TGI: > 100 µM
M19-MEL melanoma
  TGI: > 100 µM
MALME-3M melanoma
  TGI: > 100 µM
MOLT-4 leukemia
  TGI: > 100 µM
NCI-H226 lung
  TGI: > 100 µM
NCI-H23 lung
  TGI: > 100 µM
NCI-H460 lung
  TGI: > 100 µM
NCI-H522 lung
  TGI: > 100 µM
OVCAR-3 ovarian
  TGI: > 100 µM
OVCAR-4 ovarian
  TGI: > 100 µM
OVCAR-5 ovarian
  TGI: > 100 µM
OVCAR-8 ovarian
  TGI: 18.5 µM
RPMI-8226 leukemia
  TGI: > 100 µM
SF-268 CNS
  TGI: > 100 µM
SF-295 CNS
  TGI: > 100 µM
SF-539 CNS
  TGI: > 100 µM
SK-MEL-2 melanoma
  TGI: > 100 µM
SK-MEL-28 melanoma
  TGI: > 100 µM
SK-MEL-5 melanoma
  TGI: > 100 µM
SK-OV-3 ovarian
  TGI: > 100 µM
SN12C renal
  TGI: > 100 µM
SNB-19 CNS
  TGI: > 100 µM
SNB-75 CNS
  TGI: > 100 µM
SNB-78 CNS
  TGI: > 100 µM
SR leukemia
  TGI: > 100 µM
SW-620 colon
  TGI: > 100 µM
TK-10 renal
  TGI: > 100 µM
U251 CNS
  TGI: > 100 µM
UACC-257 melanoma
  TGI: > 100 µM
UACC-62 melanoma
  TGI: > 100 µM
UO-31 renal
  TGI: > 100 µM
XF 498 CNS
  TGI: > 100 µM

## O=C(NN1C(=O)C(Cl)C1c1ccc(O)cc1)c1ccccc1O (configuration not stated)
786-0 renal
  TGI: 33.5 µM
A549 NSCLC
  TGI: 50 µM
ACHN renal
  TGI: 34.5 µM
CCRF-CEM leukemia
  TGI: > 100 µM
DLD-1 colon
  TGI: 30.6 µM
DMS 114 small cell lung
  TGI: 29.6 µM
DMS 273 small cell lung
  TGI: 25.5 µM
HCT-116 colon
  TGI: 28.5 µM
HCT-15 colon
  TGI: 30.6 µM
HL-60(TB) leukemia
  TGI: > 100 µM
HOP-18 NSCLC
  TGI: 30.4 µM
HT29 colon
  TGI: 36.1 µM
IGROV1 ovarian
  TGI: 27.5 µM
K-562 leukemia
  TGI: > 100 µM
KM12 colon
  TGI: 29.5 µM
LOX IMVI melanoma
  TGI: 31.7 µM
LXFL 529 NSCLC
  TGI: 33.3 µM
M14 melanoma
  TGI: 38.4 µM
M19-MEL melanoma
  TGI: 40.6 µM
MALME-3M melanoma
  TGI: 34.5 µM
MOLT-4 leukemia
  TGI: > 100 µM
NCI-H226 lung
  TGI: 30.7 µM
NCI-H23 lung
  TGI: 41.8 µM
NCI-H460 lung
  TGI: 35.7 µM
NCI-H522 lung
  TGI: 34.5 µM
OVCAR-3 ovarian
  TGI: 31.7 µM
OVCAR-4 ovarian
  TGI: 40.4 µM
OVCAR-8 ovarian
  TGI: 30.8 µM
RXF 393 renal
  TGI: 27 µM
SF-268 CNS
  TGI: 41.2 µM
SF-295 CNS
  TGI: 33.9 µM
SF-539 CNS
  TGI: 38.5 µM
SK-MEL-2 melanoma
  TGI: 48.3 µM
SK-MEL-28 melanoma
  TGI: 36.5 µM
SK-MEL-5 melanoma
  TGI: 27.7 µM
SK-OV-3 ovarian
  TGI: 59.5 µM
SN12C renal
  TGI: 43.7 µM
SNB-19 CNS
  TGI: 43.7 µM
SNB-75 CNS
  TGI: > 100 µM
SNB-78 CNS
  TGI: 65.4 µM
TK-10 renal
  TGI: 70.6 µM
U251 CNS
  TGI: 27.3 µM
UACC-257 melanoma
  TGI: 55.9 µM
UACC-62 melanoma
  TGI: 32.3 µM
UO-31 renal
  TGI: 29 µM
XF 498 CNS
  TGI: 23.7 µM
